Measurements as given in PubChem BioAssay AID608 (Sanford-Burnham Center for Chemical Genomics, 2007).
The source made the active and inactive calls. No rule for the calls is given here.

Target: Peptidyl-prolyl cis-trans isomerase FKBP1A (Homo sapiens) (UniProt P62942)
Assay: small-molecule binding to FKBP12 – biophysical, NMR detection (AID 608)
Details: purified FKBP12

Sequence of Peptidyl-prolyl cis-trans isomerase FKBP1A (Homo sapiens) (P62942 whole entry, looked up): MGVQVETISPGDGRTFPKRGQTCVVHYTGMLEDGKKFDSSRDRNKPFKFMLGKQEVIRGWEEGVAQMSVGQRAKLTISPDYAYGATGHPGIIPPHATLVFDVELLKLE

| Structure (SMILES) | Kd |
| --- | --- |
| C1CCN2C[C@@H]3C[C@H](CN4CCCC[C@@H]34)[C@H]2C1 | > 4 mM (inactive) |
| COc1ccc2c(C)cc(=O)oc2c1 | > 4 mM (inactive) |
| CC(C)c1ccc2c(c1O)CC[C@H]1C3=C(CC[C@]21C)C(=O)OC3 | > 4 mM (inactive) |
| Nc1cccc(S(=O)(=O)N2CCCCC2)c1 | > 4 mM (inactive) |
| O=C(Nn1cnnc1)c1cc2c(s1)CCCC2 | > 4 mM (inactive) |
| O=C1CSC(=NC(=O)c2ccccc2)N1 | > 4 mM (inactive) |
| NC(=O)CSc1nc2ccccc2[nH]1 | > 4 mM (inactive) |
| Cc1c(CO)cnn1-c1ccc(F)cc1 | > 4 mM (inactive) |
| COC(=O)[C@@H]1OC(=O)C2OC23[C@@]1(C)CCC1[C@@]2(C)CCC(=O)C(C)(C)C2C[C@@H](OC(C)=O)[C@]13C (stereo partly drawn) | > 4 mM (inactive) |
| COc1c(C(=O)N2CCCC2)ccc2ccccc12 | > 4 mM (inactive) |
| CC(C)/C(O)=C1/C(=O)O[C@@H](c2ccoc2)[C@]2(C)C(O)[C@@H](O)[C@@]34OC5(C)OC67CC(C)(C(O)[C@]6(O)[C@@H](O)[C@]3(O5)C12)[C@H](CC(=O)O)[C@]74C (stereo partly drawn) | > 4 mM (inactive) |
| COc1ccc(-c2oc3cc(O[C@H]4O[C@H](CO)[C@@H](O)[C@H](O)[C@H]4O)c(OC)c(O)c3c(=O)c2OC)cc1O | > 4 mM (inactive) |
| Cc1cccc(CO)n1 | > 4 mM (inactive) |
| CC(=O)NS(=O)(=O)c1ccc(C)cc1 | > 4 mM (inactive) |
| Cc1nnsc1C(=O)Nc1ccccc1[N+](=O)[O-] | > 4 mM (inactive) |
| COc1ccc(Cl)cc1NC(=O)c1ccco1 | > 4 mM (inactive) |
| Cc1ccc(C)n1NC(=O)c1ccco1 | > 4 mM (inactive) |
| Cc1ccc2cccc(OC(=O)N3CCCC3)c2n1 | > 4 mM (inactive) |
| Cc1cc(C(=O)N2CCN(c3ccccn3)CC2)c(C)o1 | > 4 mM (inactive) |
| Cc1nnsc1C(=O)O | > 4 mM (inactive) |
| Oc1ccc(-n2ccnc2)cc1 | > 4 mM (inactive) |

| Structure (SMILES) | Kd |
| --- | --- |
| Cn1c(=O)c2ccccc2n(Cc2ccccc2F)c1=O | > 4 mM (inactive) |
| COc1ccc(NC2=NCC(C)S2)cc1 (stereo not drawn) | > 4 mM (inactive) |
| O=C1NCC(=O)N2CCc3ccccc3C12 (stereo not drawn) | > 4 mM (inactive) |
| CC(=O)NC(=S)Nc1ccc(N(C)C(C)=O)cc1 | > 4 mM (inactive) |
| Cn1c(CN)nc2ccccc21 | > 4 mM (inactive) |
| Nc1cncc(C(=O)O)c1 | > 4 mM (inactive) |
| NC(=O)Cn1nc(-c2ccc(F)cc2)ccc1=O | > 4 mM (inactive) |
| Cc1cc(=O)n2[nH]cnc2n1 | > 4 mM (inactive) |
| COc1cccc(OC)c1C(=O)N1CCOCC1 | > 4 mM (inactive) |
| COCC(=O)N1CCCc2ccccc21 | > 4 mM (inactive) |
| CC[C@H](CCC(C)[C@H]1CCC2C3CCC4C[C@@H](O)CC[C@]4(C)C3CC[C@@]21C)C(C)C (stereo partly drawn) | > 4 mM (inactive) |
| c1ccc(Cc2nn3c(-c4ccncc4)nnc3s2)cc1 | > 4 mM (inactive) |
| COc1ccc(Cl)cc1NS(=O)(=O)N1CCCCC1 | inactive |
| CCOC(=O)c1c(C)cc(O)cc1O | > 4 mM (inactive) |
| Nc1nc(SCc2ccccc2)ns1 | > 4 mM (inactive) |
| CCc1c(C)n([O-])c2c([n+]1=O)CCC2 | > 4 mM (inactive) |
| Cc1ccc(C(=O)N2CCC(C(=O)O)CC2)cc1 | > 4 mM (inactive) |
| COc1ccc(-c2cc(=O)c3c(O)cc(O[C@@H]4O[C@H](CO[C@H]5O[C@H](C)[C@@H](O)[C@H](O)[C@@H]5O)[C@@H](O)[C@H](O)[C@H]4O)cc3o2)cc1O | > 4 mM (inactive) |
| COC(=O)[C@@H]1OC(=O)C2OC23[C@@]1(C)CCC1[C@]2(C)C(C[C@@H](O)[C@]13C)C(C)(C)[C@H](OC(C)=O)C[C@@H]2OC(C)=O (stereo partly drawn) | > 4 mM (inactive) |
| O=C(O)C1CSC(c2cccnc2)N1 (stereo not drawn) | > 4 mM (inactive) |
| CN(C)S(=O)(=O)N1CCc2ccccc21 | > 4 mM (inactive) |

| Structure (SMILES) | Kd |
| --- | --- |
| CC(=O)c1cccc(NS(=O)(=O)N(C)C)c1 | > 4 mM (inactive) |
| COC1=CC(=O)C=C(OC)C1=O | > 4 mM (inactive) |
| CCOC(=O)c1[nH]c(C)cc1C | > 4 mM (inactive) |
| O=C(O)CS(=O)(=O)c1ccccc1 | > 4 mM (inactive) |
| O=C(c1sc2cc(Cl)cc(Cl)c2c1Cl)N1CCOCC1 | inactive |
| COc1cccc(/C=C/C(=O)O)c1C(C)C | > 4 mM (inactive) |
| O=C(NCO)c1ccc([N+](=O)[O-])cc1 | > 4 mM (inactive) |
| CSCCNC(C)=O | > 4 mM (inactive) |
| CC(=O)Nc1cccs1 | > 4 mM (inactive) |
| Cc1cc(C)nc(NC(N)=NCc2ccco2)n1 | > 4 mM (inactive) |
| CCOc1ccc2ccccc2c1C(=O)N1CCOCC1 | > 4 mM (inactive) |
| Cc1ccc(Nc2nnns2)cc1C | > 4 mM (inactive) |
| Cc1c(C(=O)Nc2ccncc2)oc2c1C(=O)CC(C)(C)C2 | > 4 mM (inactive) |
| NS(=O)(=O)c1ccc(N=Cc2cccs2)cc1 | > 4 mM (inactive) |
| O=C1c2cccnc2C(=O)N1Cc1ccc2c(c1)OCO2 | > 4 mM (inactive) |
| O=C(O)c1cc(=O)c2cccc(O)c2[nH]1 | > 4 mM (inactive) |
| COC(=O)c1ccc2nsnc2c1 | > 4 mM (inactive) |
| CC1=[N+]([O-])C2(N)CCc3c(no[n+]3[O-])C2(O)C1 (stereo not drawn) | > 4 mM (inactive) |
| O=C1c2ccccc2C(=O)N1Cc1ccco1 | > 4 mM (inactive) |
| Nc1nc(SCc2ccc3c(c2)OCCO3)n[nH]1 | > 4 mM (inactive) |
| CC(=O)Oc1c(C)cc(O)c2ccccc12 | > 4 mM (inactive) |

| Structure (SMILES) | Kd |
| --- | --- |
| CN1CC(=O)N=C1N | > 4 mM (inactive) |
| O=S(=O)(O)c1nc2ccccc2[nH]1 | > 4 mM (inactive) |
| OCc1c[nH]c2ccccc12 | > 4 mM (inactive) |
| O=C1CCCN1c1ccc(S(=O)O)cc1 | > 4 mM (inactive) |
| CCn1nnc2c(NCc3ccccn3)ncnc21 | > 4 mM (inactive) |
| O=C(O)/C=C(\CC(=O)O)C(=O)O | > 4 mM (inactive) |
| CC(=O)O[C@H]1C[C@@H](OC(C)=O)C(C)(C)C2C[C@@H](OC(C)=O)[C@]3(C)C(CC[C@@]4(C)[C@H](c5ccoc5)OC(=O)[C@H]5O[C@]543)[C@]21C (stereo partly drawn) | > 4 mM (inactive) |
| Cc1cc(NC(=O)c2ocnc2C)no1 | > 4 mM (inactive) |
| Nc1ccc(CN2CCS(=O)(=O)CC2)cc1 | > 4 mM (inactive) |
| COC(=O)Nc1nc2c(C)cccc2s1 | > 4 mM (inactive) |
| Cc1cc([N+](=O)[O-])cc[n+]1[O-] | > 4 mM (inactive) |
| COc1ccc(-c2coc3cc(OC(C)=O)cc(OC(C)=O)c3c2=O)cc1 | > 4 mM (inactive) |
| CC(=O)Nc1nc(-c2cccs2)cs1 | > 4 mM (inactive) |
| COc1c(-c2coc3cc4c(cc3c2=O)CC(O)C(C)(C)O4)ccc2c1C=CC(C)(C)O2 (stereo not drawn) | > 4 mM (inactive) |
| NC(=O)c1ccccc1N=Cc1ccco1 | > 4 mM (inactive) |
| COC(=O)c1cccnc1Oc1ccccc1 | > 4 mM (inactive) |
| CCn1nccc1C(=O)Nc1ccc(Cl)cc1Cl | > 4 mM (inactive) |
| Cc1nn(-c2ccccc2C(=O)O)c(=O)c2ccccc12 | > 4 mM (inactive) |
| CC(C)c1c(O)ccc2c1CCC1[C@@](C)(C=O)CCC[C@]21C (stereo partly drawn) | > 4 mM (inactive) |
| Cn1ccc(NC(=S)NC2CCCC2)n1 | > 4 mM (inactive) |
